Measured values from ChEMBL document CHEMBL1134115, “Antimycobacterial activity of 9-sulfonylated/sulfenylated-6-mercaptopurine derivatives” (Bioorg Med Chem Lett, 2001).
In brackets after ≈: the same amount, converted by molar mass.

Tests used:
Mycobacterium avium = assay: Percent inhibition against Mycobacterium avium at the dose of 12.5 uM using Microplate Alamar Blue Assay (MABA) assay; type: functional
[1] = test system: Mycobacterium tuberculosis; assay: Antimycobacterial activity against Mycobacterium tuberculosis H37Rv using Microplate Alamar Blue Assay (MABA) assay; type: functional
[2] = test system: Mycobacterium tuberculosis; assay: Antimycobacterial activity against Mycobacterium tuberculosis wild type (WT, H37Rv); type: functional
Vero = assay: Cytotoxicity determined in VERO cells at concentrations less than or equal to […] or 10 times the MIC against Mycobacterium tuberculosis H37Rv.; type: functional, cell-based; details: Chlorocebus sabaeus
[3] = Selectivity index (IC50/MIC) was determined; type: functional
[4] = test system: Mycobacterium tuberculosis; assay: Antimycobacterial activity against Mycobacterium tuberculosis Erdman using Microplate Alamar Blue Assay (MABA) assay; type: functional

Structure (SMILES)	inhibition at 12.5 µM (Mycobacterium avium) [%]	MIC [1] [µg/mL]	MIC [2] [µg/mL]	IC50 (Vero) [µg/mL]	Selectivity index [3] [SI]	MIC [4] [µg/mL]
O=S(=O)(c1ccc(Cl)cc1)n1cnc2c(S)ncnc21	60	3.13 (≈ 9.58 µM)	3.13 (≈ 9.58 µM)	1 (≈ 3.06 µM)	0.32	
O=[N+]([O-])c1ccccc1S(=O)(=O)n1cnc2c(S)ncnc21	50	1.56 (≈ 4.62 µM)		64 (≈ 190 µM)	40	
Nc1ccc(S(=O)(=O)n2cnc3c(S)ncnc32)cc1	63	0.78 (≈ 2.54 µM)		> 100	> 128	
Cc1ccc(S(=O)(=O)n2cnc3c(S)ncnc32)cc1	73	1.6 (≈ 5.22 µM)		4 (≈ 13.1 µM)	2.5	
O=[N+]([O-])c1ccccc1Sn1cnc2c(S)ncnc21	75	0.78 (≈ 2.55 µM)		5 (≈ 16.4 µM)	6.4	
Nc1cccc(S(=O)(=O)n2cnc3c(S)ncnc32)c1	68	3.13 (≈ 10.2 µM)	3.13 (≈ 10.2 µM)	468 (≈ 1520 µM)	150	
CN(C)S(=O)(=O)n1cnc2c(=S)[nH]cnc21	40	0.39 (≈ 1.5 µM)	0.39 (≈ 1.5 µM)	> 200	> 513	
O=S(=O)(c1ccc(F)cc1)n1cnc2c(S)ncnc21	70	3.39 (≈ 10.9 µM)		1 (≈ 3.22 µM)	0.3	
O=[N+]([O-])c1ccc(Sn2cnc3c(S)ncnc32)cc1	79		0.78 (≈ 2.55 µM)	45 (≈ 147 µM)	58	0.78 (≈ 2.55 µM)
O=S(=O)(c1ccc(Br)cc1)n1cnc2c(S)ncnc21	81	0.78 (≈ 2.1 µM)		2 (≈ 5.39 µM)	2.6	
CC(=O)Nc1ccc(S(=O)(=O)n2cnc3c(S)ncnc32)cc1	57	0.78 (≈ 2.23 µM)	0.78 (≈ 2.23 µM)	> 200	> 256	
CO[C@H]1/C=C/O[C@@]2(C)Oc3c(C)c(O)c4c(O)c(c(/C=N/N5CCN(C)CC5)c(O)c4c3C2=O)NC(=O)/C(C)=C\C=C\[C@H](C)[C@H](O)[C@@H](C)[C@@H](O)[C@@H](C)[C@H](OC(C)=O)[C@@H]1C [RIFAMPIN]		0.125 (≈ 0.152 µM)	0.125 (≈ 0.152 µM)	> 1000	> 8000	
